Source: publication PMC6718736, “Validation of in vitro methods for human cytochrome P450 enzyme induction: Outcome of a multi-laboratory study” (Toxicology in Vitro, 2019)
Entries after “also recorded” stand apart in the source; their conditions may differ. Read-outs that look alike come from different tables or passages of the source.

Tests used:
CYP1A2 [1] = assay: CYP1A2 enzyme induction assay in cryopreserved HepaRG cells (phenacetin probe, LC/MS); type: in vitro ADME, human; conditions: for Assigned classification CYP1A2: HepaRG; as to Assigned classification CYP1A2: key: 1=Positive=inducer; 0=Negative=non-inducer
CYP2B6 [2] = assay: CYP2B6 enzyme induction assay in cryopreserved HepaRG cells (bupropion probe, LC/MS); type: in vitro ADME, human; conditions: for Prediction in vivo inducer: Cmax/F2 >0.5 criterion; for Assigned classification CYP2B6: HepaRG; as to Assigned classification CYP2B6: key: 1=Positive=inducer; 0=Negative=non-inducer
CYP3A4 [3] = assay: CYP3A4 enzyme induction assay in cryopreserved HepaRG cells (midazolam probe, LC/MS); type: in vitro ADME, human; conditions: for Assigned classification CYP3A4: HepaRG; as to Assigned classification CYP3A4: key: 1=Positive=inducer; 0=Negative=non-inducer
CYP1A2 [4] = assay: CYP1A2 enzyme induction assay in cryopreserved primary human hepatocytes (PHH); type: in vitro ADME; conditions: for Prediction in vivo inducer: Cmax/F2 >0.5 criterion; for Assigned classification CYP1A2: PHH;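 as to Assigned classification CYP1A2: code 1 means positive inducer and 0 means non-inducer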
CYP2B6 [5] = assay: CYP2B6 enzyme induction assay in cryopreserved primary human hepatocytes (PHH); type: in vitro ADME; conditions: for Assigned classification CYP2B6: PHH;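 as to Assigned classification CYP2B6: code 1 means positive inducer and 0 means non-inducer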
CYP1A2 [6] = conditions: cited from earlier work
[7] = cited from earlier work
CYP = CYP isoforms induced; ref Abadie et al. (2009), Richert et al. (2010), Preissner et al. (2010), Hoffmann et al. (2014); cited from earlier work
CYP2B6 [8] = conditions: cited from earlier work
CYP3A4 [9] = conditions: cited from earlier work
CYP3A4 [10] = assay: CYP3A4 enzyme induction assay in cryopreserved primary human hepatocytes (PHH); conditions: for Assigned classification CYP3A4: PHH
[11] = human in vivo, CYP named without remark = induced, ref references in the cell, Washington University database, Hoffmann et al. (2014), Pelkonen et al. (2008), Hukkanen et al. (2012)

NC(=O)N1c2ccccc2C=Cc2ccccc21 [Carbamazepine]
Prediction in vivo inducer (CYP1A2 [1]; CYP1A2, HepaRG cells, Cmax/F2 >0.5 criterion): Yes
F2 (CYP1A2 [1]; CYP1A2, HepaRG cells, in vitro concentration producing 2-fold induction): 56.4 µM
Induction in vitro (CYP1A2 [1]; CYP1A2, HepaRG cells, positive in one batch in each of the three laboratories): Yes
Assigned classification CYP1A2 (CYP1A2 [1]; Lab 1, batch 20): 1
Assigned classification CYP1A2 (CYP1A2 [1]; Lab 1, batch 35): 1
Assigned classification CYP1A2 (CYP1A2 [1]; Lab 1, batch 36): 1
Assigned classification CYP1A2 (CYP1A2 [1]; Lab 2, batch 20): 1
Assigned classification CYP1A2 (CYP1A2 [1]; Lab 2, batch 35): 1
Assigned classification CYP1A2 (CYP1A2 [1]; Lab 2, batch 36): 1
Assigned classification CYP1A2 (CYP1A2 [1]; Lab 3, batch 20): 0
Assigned classification CYP1A2 (CYP1A2 [1]; Lab 3, batch 35): 1
Assigned classification CYP1A2 (CYP1A2 [1]; Lab 3, batch 36): 1
Prediction in vivo inducer (CYP2B6 [2]; CYP2B6, HepaRG cells): Yes
Prediction in vivo inducer (CYP2B6 [2]; CYP2B6, HepaRG cells, listed as carbamazepine): correctly classified
F2 (CYP2B6 [2]; CYP2B6, HepaRG cells, in vitro concentration producing 2-fold induction): 18.8 µM
Induction in vitro (CYP2B6 [2]; CYP2B6, HepaRG cells, positive in one batch in each of the three laboratories): Yes
Assigned classification CYP2B6 (CYP2B6 [2]; Lab 1, batch 20): 1
Assigned classification CYP2B6 (CYP2B6 [2]; Lab 1, batch 35): 1
Assigned classification CYP2B6 (CYP2B6 [2]; Lab 1, batch 36): 1
Assigned classification CYP2B6 (CYP2B6 [2]; Lab 2, batch 20): 1
Assigned classification CYP2B6 (CYP2B6 [2]; Lab 2, batch 35): 1
Assigned classification CYP2B6 (CYP2B6 [2]; Lab 2, batch 36): 1
Assigned classification CYP2B6 (CYP2B6 [2]; Lab 3, batch 20): 1
Assigned classification CYP2B6 (CYP2B6 [2]; Lab 3, batch 35): 1
Assigned classification CYP2B6 (CYP2B6 [2]; Lab 3, batch 36): 1
F2 (CYP3A4 [3]; CYP3A4, HepaRG cells): 18.8 µM
Induction in vitro (CYP3A4 [3]; CYP3A4, HepaRG cells): Yes
Prediction in vivo inducer (CYP3A4 [3]; CYP3A4, HepaRG cells): Yes
Assigned classification CYP3A4 (CYP3A4 [3]; Lab 1, batch 20): 1
Assigned classification CYP3A4 (CYP3A4 [3]; Lab 1, batch 35): 1
Assigned classification CYP3A4 (CYP3A4 [3]; Lab 1, batch 36): 0
Assigned classification CYP3A4 (CYP3A4 [3]; Lab 2, batch 20): 1
Assigned classification CYP3A4 (CYP3A4 [3]; Lab 2, batch 35): 1
Assigned classification CYP3A4 (CYP3A4 [3]; Lab 2, batch 36): 1
Assigned classification CYP3A4 (CYP3A4 [3]; Lab 3, batch 20): 1
Assigned classification CYP3A4 (CYP3A4 [3]; Lab 3, batch 35): 1
Assigned classification CYP3A4 (CYP3A4 [3]; Lab 3, batch 36): 1
Prediction in vivo inducer (CYP1A2 [4]; CYP1A2, PHH): No
Prediction in vivo inducer (CYP1A2 [4]; CYP1A2, PHH, listed as carbamazepine): non-inducer; also recorded: missed the in vivo prediction
Induction in vitro (CYP1A2 [4]; CYP1A2, PHH, positive in one donor in each of the three laboratories): No
Assigned classification CYP1A2 (CYP1A2 [4]; Lab 1, batch 0 6 A): 0
Assigned classification CYP1A2 (CYP1A2 [4]; Lab 1, batch 4 0 8): 1
Assigned classification CYP1A2 (CYP1A2 [4]; Lab 1, batch 8 0 8): 0
Assigned classification CYP1A2 (CYP1A2 [4]; Lab 2, batch 0 6 A): 0
Assigned classification CYP1A2 (CYP1A2 [4]; Lab 2, batch 4 0 8): 0
Assigned classification CYP1A2 (CYP1A2 [4]; Lab 2, batch 8 0 8): 0
Assigned classification CYP1A2 (CYP1A2 [4]; Lab 3, batch 0 6 A): 1
Assigned classification CYP1A2 (CYP1A2 [4]; Lab 3, batch 4 0 8): 0
Assigned classification CYP1A2 (CYP1A2 [4]; Lab 3, batch 8 0 8): 0
F2 (CYP2B6 [5]; CYP2B6, PHH): 2.09 to 6.27 µM
Induction in vitro (CYP2B6 [5]; CYP2B6, PHH): Yes
Prediction in vivo inducer (CYP2B6 [5]; CYP2B6, PHH): Yes
Prediction in vivo inducer (CYP2B6 [5]; CYP2B6, PHH, Cmax/F2 >0.5 criterion): positive
Assigned classification CYP2B6 (CYP2B6 [5]; Lab 1, batch 0 6 A): 1
Assigned classification CYP2B6 (CYP2B6 [5]; Lab 1, batch 4 0 8): 1
Assigned classification CYP2B6 (CYP2B6 [5]; Lab 1, batch 8 0 8): 0
Assigned classification CYP2B6 (CYP2B6 [5]; Lab 2, batch 0 6 A): 1
Assigned classification CYP2B6 (CYP2B6 [5]; Lab 2, batch 4 0 8): 1
Assigned classification CYP2B6 (CYP2B6 [5]; Lab 2, batch 8 0 8): 0
Assigned classification CYP2B6 (CYP2B6 [5]; Lab 3, batch 0 6 A): 1
Assigned classification CYP2B6 (CYP2B6 [5]; Lab 3, batch 4 0 8): 1
Assigned classification CYP2B6 (CYP2B6 [5]; Lab 3, batch 8 0 8): 0
Induction in vivo (CYP1A2 [6]; CYP1A2, human, ref Table 1): Yes
CYP induction in vivo literature reference: CYP1A2 (CYP1A2 [6]; [11]): CYP 1A2
Cmax ([7]; human in vivo plasma concentration, normal dose): 39 µM
Cmax ([7]; human in vivo, normal dose (Table 10)): 39 µM
CYP induction in vitro (human hepatocytes) (CYP): CYP1A2, CYP2B6, CYP3A4
Induction in vivo (CYP2B6 [8]; CYP2B6, human in vivo reference classification): Yes
Induction in vivo (CYP2B6 [8]; CYP2B6, human, ref Table 1): Yes
CYP induction in vivo literature reference: CYP2B6 (CYP2B6 [8]; [11]): CYP2B6
Induction in vivo (CYP3A4 [9]; CYP3A4, human in vivo reference classification (Table 11)): Yes
CYP induction in vivo literature reference: CYP3A4 (CYP3A4 [9]; [11]): CYP 3A4
Induction in vitro (CYP3A4 [10]; CYP3A4, PHH): Yes
Prediction in vivo inducer (CYP3A4 [10]; CYP3A4, PHH): Yes
Assigned classification CYP3A4 (CYP3A4 [10]; Lab 1, batch 0 6 A): 1
Assigned classification CYP3A4 (CYP3A4 [10]; Lab 1, batch 4 0 8): 1
Assigned classification CYP3A4 (CYP3A4 [10]; Lab 1, batch 8 0 8): 1
Assigned classification CYP3A4 (CYP3A4 [10]; Lab 2, batch 0 6 A): 1
Assigned classification CYP3A4 (CYP3A4 [10]; Lab 2, batch 4 0 8): 1
Assigned classification CYP3A4 (CYP3A4 [10]; Lab 2, batch 8 0 8): 1
Assigned classification CYP3A4 (CYP3A4 [10]; Lab 3, batch 0 6 A): 1
Assigned classification CYP3A4 (CYP3A4 [10]; Lab 3, batch 4 0 8): 1
Assigned classification CYP3A4 (CYP3A4 [10]; Lab 3, batch 8 0 8): 1
